Results from patent publication EP1247803A2, “Indolinone compounds suitable for modulation of protein kinases” (Sugen, Inc., priority 1996, dated 1998).

Experiments:
EGFR = target: T1, EGFR (Homo sapiens, UniProt P00533); assay: EGFR ELISA assay (in vitro kinase activity, EGFR captured from A431 cell lysate); assay type: biochemical; set-up: concentration or dose not given beside the values
T1 construct: Add 7 ug A431 cell lysate per well (EGFR source); endogenous in cells; host or cells: A431
How it was run: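 EGFR from A431 lysate was captured on anti-EGFR antibody-coated plates and preincubated with compounds for 30 min. Autophosphorylation ran 5 min with 3 uM ATP and 5 mM MnCl2 (final), stopped with 20 mM EDTA. Phosphotyrosine was detected by anti-pTyr ELISA with ABTS/H2O2, read at 410 nm.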

PDGF-R = PDGF-R (Homo sapiens, UniProt P09619); assay: PDGF-R ELISA; assay type: cell-based
Excerpt: A PDGF-R ELISA is described in International Patent Publication No. WO 96/40116, published December 19, 1996 by Tang et al.

T1 sequence (P00533 25-1210): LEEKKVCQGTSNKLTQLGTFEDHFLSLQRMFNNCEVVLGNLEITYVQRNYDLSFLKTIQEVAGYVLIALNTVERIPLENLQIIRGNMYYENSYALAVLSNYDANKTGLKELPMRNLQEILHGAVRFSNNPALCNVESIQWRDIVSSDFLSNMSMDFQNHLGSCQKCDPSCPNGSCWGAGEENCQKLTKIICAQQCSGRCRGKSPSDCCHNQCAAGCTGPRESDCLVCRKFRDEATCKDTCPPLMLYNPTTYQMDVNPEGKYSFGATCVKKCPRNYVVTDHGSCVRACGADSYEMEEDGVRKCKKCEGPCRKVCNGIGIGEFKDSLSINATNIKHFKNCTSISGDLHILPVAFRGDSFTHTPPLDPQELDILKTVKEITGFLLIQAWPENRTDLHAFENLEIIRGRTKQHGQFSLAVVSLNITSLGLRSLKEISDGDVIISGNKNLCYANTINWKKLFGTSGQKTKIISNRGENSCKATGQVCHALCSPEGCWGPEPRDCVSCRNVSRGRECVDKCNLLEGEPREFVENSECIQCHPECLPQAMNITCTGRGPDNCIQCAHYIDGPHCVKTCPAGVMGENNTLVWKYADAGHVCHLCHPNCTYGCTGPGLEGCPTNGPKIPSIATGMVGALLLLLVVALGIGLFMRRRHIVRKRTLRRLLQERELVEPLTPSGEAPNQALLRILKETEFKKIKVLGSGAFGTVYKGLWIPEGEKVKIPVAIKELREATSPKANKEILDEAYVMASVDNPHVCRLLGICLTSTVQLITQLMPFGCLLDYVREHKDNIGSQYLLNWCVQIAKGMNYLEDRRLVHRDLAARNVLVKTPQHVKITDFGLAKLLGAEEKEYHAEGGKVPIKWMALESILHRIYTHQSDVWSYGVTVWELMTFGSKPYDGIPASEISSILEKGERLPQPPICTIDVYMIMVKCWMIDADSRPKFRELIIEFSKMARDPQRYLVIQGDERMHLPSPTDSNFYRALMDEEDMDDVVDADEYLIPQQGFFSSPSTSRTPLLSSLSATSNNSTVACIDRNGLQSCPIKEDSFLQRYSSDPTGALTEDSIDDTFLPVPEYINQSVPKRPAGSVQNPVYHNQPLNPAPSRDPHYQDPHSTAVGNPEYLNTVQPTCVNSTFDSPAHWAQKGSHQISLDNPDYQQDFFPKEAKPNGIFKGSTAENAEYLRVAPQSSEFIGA
PDGF-R, sequence (P09619 33-1106, species assumed): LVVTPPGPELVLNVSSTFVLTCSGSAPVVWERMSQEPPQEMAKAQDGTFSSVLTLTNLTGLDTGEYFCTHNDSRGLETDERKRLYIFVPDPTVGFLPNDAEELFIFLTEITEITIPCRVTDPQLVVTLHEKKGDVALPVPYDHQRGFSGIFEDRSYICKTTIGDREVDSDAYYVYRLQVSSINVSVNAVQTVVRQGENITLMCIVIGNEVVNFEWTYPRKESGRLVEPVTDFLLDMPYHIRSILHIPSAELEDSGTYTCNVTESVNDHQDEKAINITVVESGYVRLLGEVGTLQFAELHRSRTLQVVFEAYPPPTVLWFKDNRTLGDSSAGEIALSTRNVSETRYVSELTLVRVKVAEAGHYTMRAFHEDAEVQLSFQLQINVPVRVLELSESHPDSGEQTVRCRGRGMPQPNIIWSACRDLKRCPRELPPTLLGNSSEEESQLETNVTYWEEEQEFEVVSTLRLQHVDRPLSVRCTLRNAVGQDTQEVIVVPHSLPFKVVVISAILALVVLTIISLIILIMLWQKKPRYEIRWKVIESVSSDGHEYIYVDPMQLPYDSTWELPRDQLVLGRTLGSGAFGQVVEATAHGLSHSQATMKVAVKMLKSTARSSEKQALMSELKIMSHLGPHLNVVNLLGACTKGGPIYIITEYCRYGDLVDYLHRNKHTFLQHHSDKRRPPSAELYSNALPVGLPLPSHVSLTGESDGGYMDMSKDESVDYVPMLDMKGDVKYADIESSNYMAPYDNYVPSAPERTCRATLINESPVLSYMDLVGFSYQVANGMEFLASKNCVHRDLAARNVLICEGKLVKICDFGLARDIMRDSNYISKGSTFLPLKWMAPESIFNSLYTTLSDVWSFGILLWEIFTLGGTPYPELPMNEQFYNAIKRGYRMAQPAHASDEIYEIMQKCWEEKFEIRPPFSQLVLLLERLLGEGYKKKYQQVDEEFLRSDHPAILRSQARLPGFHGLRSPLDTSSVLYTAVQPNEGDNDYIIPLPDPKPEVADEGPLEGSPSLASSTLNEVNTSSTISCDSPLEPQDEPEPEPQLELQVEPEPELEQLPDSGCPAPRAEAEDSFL

Compound	Biochem EGFR %Inhibition (EGFR) [%]	PDGF Kinase %Inhibition (PDGF-R) [%]
CNS(=O)(=O)c1ccc2c(c1)C(=Cc1[nH]c(C)c(Br)c1Br)C(=O)N2 [10717/D11]	59.1	
CCOc1ccccc1C=C1C(=O)Nc2ccc(S(=O)(=O)Nc3ccc(C(F)(F)F)cc3)cc21 [10717/E02]	17.2	
O=C1Nc2ccc(S(=O)(=O)Nc3ccc(C(F)(F)F)cc3)cc2C1=Cc1cccs1 [10717/E03]	11.7	
Cn1cccc1C=C1C(=O)Nc2ccc(S(=O)(=O)Nc3ccc(C(F)(F)F)cc3)cc21 [10717/E04]	-28.3	
O=C1Nc2ccc(S(=O)(=O)Nc3ccc(C(F)(F)F)cc3)cc2C1=Cc1ccc(F)cc1 [10717/E05]	22.4	
O=C1Nc2ccc(S(=O)(=O)Nc3ccc(C(F)(F)F)cc3)cc2C1=Cc1c[nH]c2ccccc12 [10717/E06]	-26.1	
Cc1ccc(C=C2C(=O)Nc3ccc(S(=O)(=O)Nc4ccc(C(F)(F)F)cc4)cc32)s1 [10717/E07]	-7.8	
O=C1Nc2ccc(S(=O)(=O)Nc3ccc(C(F)(F)F)cc3)cc2C1=Cc1ccc(Br)cc1 [10717/E08]	28.2	
CC(C)(C)c1cc(C=C2C(=O)Nc3ccc(CCCl)cc32)cc([N+](=O)[O-])c1O [10722/G02]	27.3	14.6
O=C1Nc2ccc(CCCl)cc2C1=Cc1c(O)cc(O)cc1O [10722/G03]	4.1	-3.7
O=C1Nc2ccc(CCCl)cc2C1=Cc1ccc([N+](=O)[O-])s1 [10722/G04]	-13.3	11.7
O=C1Nc2ccc(CCCl)cc2C1=Cc1ccc(C(=O)O)cc1 [10722/G05]	-9.0	-6.0
O=C1Nc2ccc(CCCl)cc2C1=Cc1ccc(F)cc1F [10722/G06]	-5.2	-6.0
Cc1cc(C=C2C(=O)Nc3ccc(CCCl)cc32)cc(C)c1O [10722/G07]	-32.5	-3.7
CC(C)(C)c1cc(C=C2C(=O)Nc3ccc(CCCl)cc32)cc(Cl)c1O [10722/G08]	-8.5	12.9
O=C1Nc2ccc(CCCl)cc2C1=Cc1csc([N+](=O)[O-])c1 [10722/G09]	-5.9	0.9
CCCCN(CCCC)c1ccc(C=C2C(=O)Nc3ccc(CCCl)cc32)cc1 [10722/G10]	3.3	16.9
O=C1Nc2ccc(CCCl)cc2C1=Cc1ccc(C(F)(F)F)cc1 [10722/G11]	-39.4	0.3
O=C1Nc2c(Br)cc(Br)cc2C1=Cc1ccc(O)c(O)c1O [10723/A02]	97.8	64.4
COc1cccc(C=C2C(=O)Nc3c(Br)cc(Br)cc32)c1O [10723/A03]	38.5	11.7
O=C1Nc2c(Br)cc(Br)cc2C1=Cc1cc(O)c(O)c(Br)c1 [10723/A04]	30.8	13.1
CC(=O)Oc1ccc(C=C2C(=O)Nc3c(Br)cc(Br)cc32)cc1OC(C)=O [10723/A05]	26.4	17.9
Cc1cc(C=C2C(=O)Nc3c(Br)cc(Br)cc32)ccc1O [10723/A06]	20.1	43.6
O=C1Nc2c(Br)cc(Br)cc2C1=Cc1ccccc1Br [10723/A07]	3.9	22.1
O=C1Nc2c(Br)cc(Br)cc2C1=Cc1ccc(O)cc1O [10723/A08]	-2.1	29.7
COc1ccc(C=C2C(=O)Nc3c(Br)cc(Br)cc32)c(O)c1 [10723/A09]	-4.5	42.9
O=C1Nc2c(Br)cc(Br)cc2C1=Cc1cccc(Br)c1 [10723/A10]	-24.8	34.6
